From patent US20260028382A1, “IMMUNOGENIC PEPTIDES AND THEIR USES IN CANCER DIAGNOSIS AND THERAPY” (The Chinese University of Hong Kong, priority 2024, published 2026)

Tested on: CD8+ T cells
Assay: IFN-γ ELISpot assay of peptide immunogenicity (peptide-pulsed DC:CD8+ T cell co-culture)
Type: cell-based, human
From the text: We obtained peripheral mononuclear cells (PBMCs) from healthy donor buffy coat samples via density gradient centrifugation. We utilized QIAamp DNA Blood Kits (Qiagen) to isolate DNA for HLA typing with LinkSeq™ HLA-ABCDRDQDP+ 384 Kit (One Lambda) on a QuantStudio™ 7 Flex Real-Time PCR System. Human T and dendritic cells (DCs) were enriched from PBMCs using a CD8 cell isolation kit and Pan-DC enrichment kit (Miltenyi Biotec), respectively, and subsequently cultured in RPMI-1640 medium (Life Technologies) supplemented with 10% FBS and 100 U/mL of Penicillin-Streptomycin.
Dendritic cells (DCs) were pulsed with a 10 μg mL^−1 peptide concentration at a cell density of 10^5 cells/mL for 4 hours at 37° C. Following this, the DCs were mixed with autologous CD8+ T cells at a DC:T cell ratio of 1:10. The cell mixture was then aliquoted into an ELISpot plate at 100 μL per well and incubated for 24 hours. The secreted IFN-γ signal was detected using the ELISpot Plus Human IFN-γ (ALP) kit (Mabtech). […]
We utilized ELISpot assay, which quantifies cytokine IFN-γ releasing by CD8^+ T lymphocytes isolated from PBMCs of healthy subjects, to verify the immunogenic potential of candidate peptides. […] We co-cultured pan-DCs loaded with the candidate peptides with autologous CD8′ T cells for 24 hours and assessed the secretion of IFN-γ as an indicator of T-cell activation and immunogenicity.

| Sequence | T cell response (IFN-γ secretion) (peptide concentration of 1 ug mL^−1, DC:CD8+ T cell co-culture, 24 hours, healthy donors) | immunogenicity demonstrated in the ELISpot analysis |
| --- | --- | --- |
| MCDEDETTA [Actin1-9, peptide derived from human Actin within the amino acid region 1-9, negative control] | negligible response |  |
| STIHLASQFTK (Description of sequence: non-canonical peptide, associated gene: CRYBG1, classification: CDS (frame-shift), short form name: p9; listed as Homo sapiens) |  | strong immunogenicity |
